Results from ChEMBL document CHEMBL3608274, “Design and synthesis of constrained analogs of LCRF-0004 as potent RON tyrosine kinase inhibitors” (Bioorg Med Chem Lett, 2015).

Columns and labels:
[1] = target: Hepatocyte growth factor receptor (Homo sapiens, UniProt P08581); experiment: Inhibition of human c-Met
[2] = target: Macrophage-stimulating protein receptor (Homo sapiens, UniProt Q04912); experiment: Inhibition of human RON
Sequence of Macrophage-stimulating protein receptor (Q04912 25-304 limits assumed): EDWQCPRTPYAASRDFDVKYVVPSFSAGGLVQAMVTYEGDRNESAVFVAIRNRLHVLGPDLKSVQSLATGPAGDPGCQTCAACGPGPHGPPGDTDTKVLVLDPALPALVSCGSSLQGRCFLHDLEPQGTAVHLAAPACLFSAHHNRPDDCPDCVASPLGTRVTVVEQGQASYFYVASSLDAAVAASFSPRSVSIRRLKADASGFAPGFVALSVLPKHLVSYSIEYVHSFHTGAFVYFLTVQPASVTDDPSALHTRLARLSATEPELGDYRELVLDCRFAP
Sequence of Macrophage-stimulating protein receptor (Q04912 310-1400 limits assumed): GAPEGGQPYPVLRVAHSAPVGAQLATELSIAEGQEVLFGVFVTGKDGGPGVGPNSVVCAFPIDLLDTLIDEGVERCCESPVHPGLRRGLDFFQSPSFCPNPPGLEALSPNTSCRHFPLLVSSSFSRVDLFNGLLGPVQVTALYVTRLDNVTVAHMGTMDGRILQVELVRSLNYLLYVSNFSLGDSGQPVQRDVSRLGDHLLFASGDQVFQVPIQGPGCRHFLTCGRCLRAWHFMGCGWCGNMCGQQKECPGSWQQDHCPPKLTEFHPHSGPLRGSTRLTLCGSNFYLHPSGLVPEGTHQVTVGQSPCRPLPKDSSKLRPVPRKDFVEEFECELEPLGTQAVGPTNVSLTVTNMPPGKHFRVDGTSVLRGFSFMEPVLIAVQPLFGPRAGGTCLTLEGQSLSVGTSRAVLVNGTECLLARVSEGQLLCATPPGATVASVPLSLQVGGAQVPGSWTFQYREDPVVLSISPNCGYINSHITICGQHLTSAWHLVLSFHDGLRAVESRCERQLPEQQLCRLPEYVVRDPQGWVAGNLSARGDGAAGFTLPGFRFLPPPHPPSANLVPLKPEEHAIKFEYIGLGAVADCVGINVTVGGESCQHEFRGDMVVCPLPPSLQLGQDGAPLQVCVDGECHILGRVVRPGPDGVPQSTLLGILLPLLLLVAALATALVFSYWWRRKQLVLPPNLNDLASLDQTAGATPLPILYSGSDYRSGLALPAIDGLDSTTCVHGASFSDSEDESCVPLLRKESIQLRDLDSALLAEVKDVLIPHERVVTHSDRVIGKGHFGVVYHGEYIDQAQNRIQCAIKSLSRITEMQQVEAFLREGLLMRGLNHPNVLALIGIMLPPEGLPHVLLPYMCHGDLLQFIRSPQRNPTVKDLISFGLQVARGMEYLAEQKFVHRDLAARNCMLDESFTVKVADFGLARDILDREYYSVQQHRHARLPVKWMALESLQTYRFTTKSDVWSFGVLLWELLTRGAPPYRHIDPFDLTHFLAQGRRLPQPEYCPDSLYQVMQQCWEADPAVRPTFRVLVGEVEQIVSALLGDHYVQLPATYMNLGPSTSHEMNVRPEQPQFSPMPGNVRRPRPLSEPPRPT

Sequence of Hepatocyte growth factor receptor (P08581 whole entry): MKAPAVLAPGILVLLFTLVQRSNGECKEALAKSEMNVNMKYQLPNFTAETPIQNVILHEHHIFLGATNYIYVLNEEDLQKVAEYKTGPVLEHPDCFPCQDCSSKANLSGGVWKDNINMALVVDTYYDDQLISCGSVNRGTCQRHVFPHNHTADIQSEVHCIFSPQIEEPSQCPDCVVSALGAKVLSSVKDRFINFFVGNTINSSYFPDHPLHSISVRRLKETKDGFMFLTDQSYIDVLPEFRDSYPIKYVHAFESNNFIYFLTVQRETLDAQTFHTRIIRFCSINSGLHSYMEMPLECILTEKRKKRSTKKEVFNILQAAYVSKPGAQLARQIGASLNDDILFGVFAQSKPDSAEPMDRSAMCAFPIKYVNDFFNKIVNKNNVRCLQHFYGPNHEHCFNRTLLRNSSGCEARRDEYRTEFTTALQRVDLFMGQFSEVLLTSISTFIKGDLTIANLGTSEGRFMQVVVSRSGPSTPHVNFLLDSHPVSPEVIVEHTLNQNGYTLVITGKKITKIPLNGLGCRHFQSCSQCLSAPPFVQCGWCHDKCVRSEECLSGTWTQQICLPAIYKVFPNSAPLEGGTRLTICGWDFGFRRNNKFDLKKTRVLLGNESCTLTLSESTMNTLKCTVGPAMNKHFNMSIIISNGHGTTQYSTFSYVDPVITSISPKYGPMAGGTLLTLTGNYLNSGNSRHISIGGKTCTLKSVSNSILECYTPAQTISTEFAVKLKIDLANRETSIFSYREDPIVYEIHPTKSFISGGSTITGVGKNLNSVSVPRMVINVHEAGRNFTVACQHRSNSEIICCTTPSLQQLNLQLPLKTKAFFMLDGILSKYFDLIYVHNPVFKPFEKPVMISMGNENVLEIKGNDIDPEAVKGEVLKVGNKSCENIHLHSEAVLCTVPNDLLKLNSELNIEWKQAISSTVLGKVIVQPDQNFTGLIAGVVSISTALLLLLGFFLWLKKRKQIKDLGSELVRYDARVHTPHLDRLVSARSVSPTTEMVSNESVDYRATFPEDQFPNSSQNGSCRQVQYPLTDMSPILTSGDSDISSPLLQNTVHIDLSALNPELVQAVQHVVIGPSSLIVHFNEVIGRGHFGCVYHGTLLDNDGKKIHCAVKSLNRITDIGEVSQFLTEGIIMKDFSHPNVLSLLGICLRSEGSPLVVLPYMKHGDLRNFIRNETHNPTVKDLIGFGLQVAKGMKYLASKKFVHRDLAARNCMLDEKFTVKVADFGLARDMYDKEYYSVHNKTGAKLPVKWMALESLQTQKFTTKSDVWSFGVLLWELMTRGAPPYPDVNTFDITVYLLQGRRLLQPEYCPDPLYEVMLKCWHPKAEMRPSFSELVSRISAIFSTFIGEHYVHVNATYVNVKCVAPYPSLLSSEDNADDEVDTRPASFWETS

## Cn1cnc(-c2cc3nccc(Oc4ccc(NC(=O)c5cnn(-c6ccccc6)c5C(F)(F)F)cc4F)c3s2)c1
[1]
  IC50: 0.012 µM
[2]
  IC50: 0.01 µM
